Assays:
K. pneumoniae BAA-1705 = test: Mouse urinary tract infection model, K. pneumoniae BAA-1705; assay type: in vivo; conditions: for Bladder Terminal Burden / Kidney Terminal Burden / Urine Terminal Burden: mice, 96 hours; for bacterial burden in urine relative to vehicle-treated controls and the ciprofloxacin control: except for the 30 mg/kg IV Compound A experiment
Procedure: (§1) Compound A and its prodrugs as disclosed herein were tested in an in vivo mouse model for Urinary Tract Infection. Briefly, mice were infected with E. coli UTI 89 to cause a UTI infection and were treated with compounds disclosed herein.
(§2) Five days prior to infection, C3H/HeNR female mice were preconditioned with drinking water containing 5% glucose. Mice were rendered unconscious using parenteral anaesthesia (ketamine/medetomidine) then 0.05 mL of a bacterial suspension of E. coli UTI 89 (1.2×10^9 CFU/mL (6.2×10^7 CFU/mouse) was administered transurethrally into the bladder to cause an ascending UTI infection.
[…]; […]; […]; […] for 3 days (six doses total). Ciprofloxacin was given as a control at 10 mg/kg/dose IV every 12 hours. Compound A was formulated in 10% DMSO, 5% Cremophor, 85% SFI; the remaining compounds used a sterile phosphate-buffered saline (PBS) formulation. Each group was comprised of five mice each.
(§3) Urine, bladder, and kidney were harvested at 24 h (pre-treatment group only) and 96 h post infection and quantitatively cultured.
The experiment was repeated using K. pneumoniae BAA-1705 (MDR; MIC90 strain). Table 5 and FIG. 2 summarize the results, showing the average terminal burden of K. pneumoniae BAA-1705 in urine, bladder, and kidney at the conclusion of the study (96 hours).

E. coli UTI 89 = test: Mouse urinary tract infection model, E. coli UTI 89; assay type: in vivo; conditions: for Bladder Terminal Burden / Kidney Terminal Burden / Urine Terminal Burden: mice, 96 h post infection; for bacterial burden in urine relative to vehicle-treated controls / bacterial burden in bladder relative to vehicle-treated controls / bacterial burden in kidney relative to vehicle-treated control / efficacy on bacterial burden in kidney: E. coli UTI 89, mice; for bacterial burden in bladder relative to vehicle-treated controls / bacterial burden in kidney relative to vehicle-treated control: IV administration; for efficacy on bacterial burden in kidney: PO administration
Procedure: as §1, §2
IV or PO treatment was started 24 h post infection with 3, 10, 15 mg/kg/dose IV Compound A; 3, 10, 15.30 mg/kg/dose IV Compound 1; 3, and 10 mg/kg/dose IV Compound 2; and 30 mg/kg/dose oral of either Compound 1 or 2 administered every 12 hours for 3 days (six doses total). Ciprofloxacin was given as a control at 10 mg/kg/dose IV every 12 hours. Compound A was formulated in 10% DMSO, 5% Cremophor, 85% SFI; the remaining compounds used a sterile phosphate-buffered saline (PBS) formulation. Each group was comprised of five mice each.
as §3

Pharmacokinetics in rats = assay type: in vivo, Male Sprague-Dawley (SD) rats; conditions: male, Sprague-Dawley, plasma, intravenous, oral; after 4 h, all routes and doses tested in rat; read-out: plasma concentration of prodrug Compound 1
Procedure: (§4) Stock solutions of test compounds were prepared at 2.5 or 5.0 mg/mL in 10 mM PBS. Male Sprague-Dawley (SD) rats (n=3 per group) or beagle dogs (n=3 per group) were administered test compound by either IV or oral administration. For IV-administered compounds, a three hour infusion was used. For PO-administered compounds, a single bolus dose was used.
(§5) After initiation of IV dosing (or after PO bolus dosing), whole blood samples were collected at 1, 3, 3.5, 4, 6, 8, and 24 hour timepoints. All samples were collected into Plasma K2-EDTA collection tubes and processed to separate plasma from red blood cells.
(§6) Liquid chromatography-tandem mass spectrometry (LC-MS/MS) was used to analyze all plasma samples, with both the test compound and the active agent Compound A being quantified. The lower limit of quantitation (LLOQ) for both rats and dogs was 1 ng/mL.

Kinetic solubility = assay type: physicochemical
Procedure: Solubility of the compounds was assessed in 10 mM phosphate-buffered saline (PBS) at pH 7 at final concentrations of 20, 40, and 50 mg/mL of test compound.

Thermal solubility = assay type: physicochemical; conditions: aqueous buffer, thermodynamic from solid; 100 mM potassium phosphate buffer pH 7.4, 24 h, 25° C.
Procedure: Solubility of the compounds was assessed in 100 mM potassium phosphate buffer at pH 7.4 after 24 hours at room temperature.
Accurately weighed K2HPO4 (2.79 g) and KH2PO4 (0.54 g) were dissolved in 90 mL of Milli-Q water and mixed well. Volume was made upto 200 mL with Milli-Q water and mixed well. The prepared phosphate buffer was stored at 2-8° C. and used within a month.
Approximately 30 mg of test compound was added to approximately 1 mL of the potassium phosphate buffer, pH 7.4. If the visual inspection indicated precipitation, no further compound is added. If the visual inspection indicated a clear solution, further increments of compound were added until the solution was no longer clear.
Test compounds and assay controls (caffeine) were further incubated for 24 h at 25° C. temperature on a thermomixer at a shaking speed of 1200 rpm. After incubation, the samples (200 μL) were transferred to a filtration plate to which a plate was attached at bottom for collecting the filtrate. The plate was centrifuged at 4000 rpm for 2 min and the filtrate was collected in the attached bottom plate. The filtrates were diluted using filtered buffer based on the initial amount of compound added. All samples were analysed by HPLC-UV method against 8 point calibration curve with concentrations ranging from 2.5 μg/mL to 1000 μg/mL.

Pharmacokinetics in dogs = assay type: in vivo; conditions: beagle, plasma, intravenous, oral; after 6 h, all routes and doses tested in dog; read-out: plasma concentration of prodrug Compound 1
Procedure: as §4, §5, §6

[1] = 10 mg/kg/dose IV every 12 hours for 3 days
[2] = 20, 40, and 50 mg/mL in 10 mM PBS pH 7
[3] = 3 mg/kg/dose IV every 12 hours for 3 days
[4] = 15 mg/kg/dose IV every 12 hours for 3 days
[5] = 30 mg/kg/dose PO every 12 hours for 3 days

Structure (SMILES)	Bladder Terminal Burden (E. coli UTI 89; [1])	Kidney Terminal Burden (E. coli UTI 89; [1])	Urine Terminal Burden (E. coli UTI 89; [1])	appearance after vortex mixing (Kinetic solubility; [2])	bacterial burden in kidney relative to vehicle-treated controls and the ciprofloxacin control (K. pneumoniae BAA-1705; K. pneumoniae BAA-1705, mice)	bacterial burden in urine relative to vehicle-treated controls and the ciprofloxacin control (K. pneumoniae BAA-1705; K. pneumoniae BAA-1705, mice)	solubility at 24 h (Thermal solubility) [µg/mL]	Bladder Terminal Burden (E. coli UTI 89; [3])	Kidney Terminal Burden (E. coli UTI 89; [3])	Urine Terminal Burden (E. coli UTI 89; [3])	Bladder Terminal Burden (E. coli UTI 89; [5])	Kidney Terminal Burden (E. coli UTI 89; [5])	Urine Terminal Burden (E. coli UTI 89; [5])	bacterial burden in urine relative to vehicle-treated controls (E. coli UTI 89)	bacterial burden in bladder relative to vehicle-treated controls (E. coli UTI 89)	bacterial burden in kidney relative to vehicle-treated control (E. coli UTI 89)	efficacy on bacterial burden in kidney (E. coli UTI 89)	other results
O=C(O)c1cn(C2CC2)c2cc(N3CCNCC3)c(F)cc2c1=O [Ciprofloxacin, reference compound]	2.85 × 10^5 CFU/mL	1.88 × 10^2 CFU/mL	5.07 × 10^2 CFU/mL															Bladder Terminal Burden (K. pneumoniae BAA-1705; 10 mg/kg/dose IV): 2.27 × 10^1 CFU/mL; Kidney Terminal Burden (K. pneumoniae BAA-1705; 10 mg/kg/dose IV): 1.88 × 10^3 CFU/mL; Urine Terminal Burden (K. pneumoniae BAA-1705; 10 mg/kg/dose IV): 1.78 × 10^2 CFU/mL; Bladder Terminal Burden (K. pneumoniae BAA-1705; 10 mg/kg/dose PO): 4.05 × 10^2 CFU/mL; Kidney Terminal Burden (K. pneumoniae BAA-1705; 10 mg/kg/dose PO): 2.59 × 10^4 CFU/mL; Urine Terminal Burden (K. pneumoniae BAA-1705; 10 mg/kg/dose PO): 9.71 × 10^2 CFU/mL
N#CC1CN(C[C@@H](Cc2nc[nH]c(=O)c2OP(=O)(O)O)c2ccc(C#Cc3ccc(CN4CCOCC4)cc3)cc2)C1 [Compound 1, (S)-4-(3-(3-cyanoazetidin-1-yl)-2-(4-((4-(morpholinomethyl)phenyl)ethynyl)phenyl)propyl)-6-oxo-1,6-dihydropyrimidin-5-yl dihydrogen phosphate]	5.05 × 10^5 CFU/mL	5.24 × 10^2 CFU/mL	9.40 × 10^3 CFU/mL	clear solutions	statistically significant reductions in bacterial burden in kidney	statistically significant reductions in bacterial burden in urine	≥ 3000	2.64 × 10^6 CFU/mL	4.74 × 10^4 CFU/mL	2.93 × 10^5 CFU/mL	1.81 × 10^5 CFU/mL	4.04 × 10^2 CFU/mL	8.73 × 10^3 CFU/mL	statistically significant reductions in bacterial burden in urine	reductions in bacterial burden in bladder	statistically significant reductions in bacterial burden in kidney	efficacious	concentration at 4 h (Pharmacokinetics in rats): < 100 ng/mL; solubility after storage (Kinetic solubility; 20, 40, and 50 mg/mL in 10 mM PBS pH 7, storage at 4° C. for 20 hours): remained soluble; Bladder Terminal Burden (K. pneumoniae BAA-1705; 11.5 mg/kg/dose IV): BLoD; Kidney Terminal Burden (K. pneumoniae BAA-1705; 11.5 mg/kg/dose IV): 1.72 × 10^1 CFU/mL; Urine Terminal Burden (K. pneumoniae BAA-1705; 11.5 mg/kg/dose IV): 2.15 × 10^1 CFU/mL; Bladder Terminal Burden (K. pneumoniae BAA-1705; 35 mg/kg/dose IV): BLoD; Kidney Terminal Burden (K. pneumoniae BAA-1705; 35 mg/kg/dose IV): BLoD; Urine Terminal Burden (K. pneumoniae BAA-1705; 35 mg/kg/dose IV): BLoD; Bladder Terminal Burden (K. pneumoniae BAA-1705; 69.5 mg/kg/dose IV): 4.58 × 10^0 CFU/mL; Kidney Terminal Burden (K. pneumoniae BAA-1705; 69.5 mg/kg/dose IV): BLoD; Urine Terminal Burden (K. pneumoniae BAA-1705; 69.5 mg/kg/dose IV): BLoD; Bladder Terminal Burden (K. pneumoniae BAA-1705; 104.5 mg/kg/dose PO): BLoD; Kidney Terminal Burden (K. pneumoniae BAA-1705; 104.5 mg/kg/dose PO): BLoD; Urine Terminal Burden (K. pneumoniae BAA-1705; 104.5 mg/kg/dose PO): 2.51 × 10^0 CFU/mL; bacterial loads in kidney (K. pneumoniae BAA-1705; K. pneumoniae BAA-1705, mice, all routes of administration): below the limit of detection; Bladder Terminal Burden (E. coli UTI 89; [4]): 9.57 × 10^4 CFU/mL; Kidney Terminal Burden (E. coli UTI 89; [4]): 1.28 × 10^2 CFU/mL; Urine Terminal Burden (E. coli UTI 89; [4]): 3.59 × 10^3 CFU/mL; concentration at 6 h (Pharmacokinetics in dogs): < 100 ng/mL
N#CC1CN(C[C@@H](Cc2nc[nH]c(=O)c2OCOP(=O)(O)O)c2ccc(C#Cc3ccc(CN4CCOCC4)cc3)cc2)C1 [Compound 2, (S)-((4-(3-(3-cyanoazetidin-1-yl)-2-(4-((4-(morpholinomethyl)phenyl)ethynyl)phenyl)propyl)-6-oxo-1,6-dihydropyrimidin-5-yl)oxy)methyl dihydrogen phosphate]	1.17 × 10^6 CFU/mL	9.67 × 10^2 CFU/mL	2.73 × 10^4 CFU/mL	milky suspensions	statistically significant reductions in bacterial burden in kidney	statistically significant reductions in bacterial burden in urine	≥ 3000	5.15 × 10^5 CFU/mL	2.52 × 10^3 CFU/mL	4.69 × 10^4 CFU/mL	2.82 × 10^5 CFU/mL	3.81 × 10^2 CFU/mL	3.41 × 10^3 CFU/mL	statistically significant reductions in bacterial burden in urine	reductions in bacterial burden in bladder	statistically significant reductions in bacterial burden in kidney	efficacious	appearance after sonication (Kinetic solubility; 20, 40, and 50 mg/mL in 10 mM PBS, sonication in 40° C. water bath for 30 min): no change in appearance; appearance after treatment with 1M HCL (Kinetic solubility; 20, 40, and 50 mg/mL, final pH of 4, 10 seconds of vortexing): Clear solutions; appearance after addition of 1M NaOH (Kinetic solubility; 20, 40, and 50 mg/mL, final pH of 7, 10 seconds of vortexing): clear solutions
